# Laboratory results published in patent publication US7011938B2, “Method of measuring platelet activation” (Barts and The London NHS Trust, priority 2000, dated 2006).
# Values joined by “and” are separate entries in the source; they are usually repeats but may differ in a detail not shown here. Equal entries are not always repeated. Structures can show the parent of a compound that is named as a salt.
# Assays:
# platelets in whole blood [1] = experiment: Assessment of platelet activation on the ADVIA 120 (PLT, MPV, MPC, PCDW, MPM); format: cell-based, human; settings: for Platelet count in blood: CTAD and E/C corrected for dilution; for Platelet counts in blood: Example 3 Table 1, ambient temperature, mean of 7
# Description: Assessment of platelet activation on the ADVIA 120. Whole blood samples were taken into Vacutainer™ containers (Becton Dickinson) containing either EDTA, CTAD, or a mixture of EDTA and CTAD (E/C). Samples were analysed immediately post-venesection and at timed intervals of 30, 60, 120, and 180 minutes post venesection. Analysis of platelet count (PLT), mean platelet volume (MPV), mean platelet component (MPC) and mean platelet component distributionwidth (PCDW) was performed using the ADVIA 120 Haematology System (Bayer Corporation, Tarrytown, N.Y.) calibrated prior to use with ADVIA TESTpoint Haematology Control reagents. (Bayer Corporation, Tarrytown, N.Y.).
# Whole blood samples were taken into Vacutainer™ containers (Becton Dickinson) containing EDTA and mixed with the aforementioned platelet antagonists, or with CTAD (this mixture is referred to as E/C). Samples were analysed as in Example 1.
# (§1) Whole blood samples were taken into Vacutainer™ containers that contained either K3EDTA, or CTAD, or a mixture of K3EDTA and CTAD (E/C). For the latter, blood was collected first into K3EDTA and then immediately transferred to a Vacutainer™ containing CTAD. Samples were held at ambient temperature, analysed immediately and at 30, 60, 120, and 180 min after venesection. Analysis of platelet count (PLT), mean platelet volume (MPV) and mean platelet component concentration (MPC) was done using the ADVIA®120 haematology system (Bayer Corporation, Tarrytown, N.Y.) Platelet counts made in blood anticoagulated with CTAD and E/C were corrected for dilution (dilution factors were 1.11 and 1.125 respectively). The system was calibrated and standardised prior to use with ADVIA®-SETpoint Haematology Control and ADVIA® OPTIpoint, respectively (Bayer Corporation). In one series of experiments (n=4) these analyses were performed on blood samples anticoagulated with E/C but held at ambient temperature and at 4° C. to investigate the effect of cooling on platelet activation.
# platelets in whole blood [2] = experiment: Expression of CD62P on platelets by flow cytometry; format: cell-based, human; settings: for CD62P % expression in blood: Example 1, n=6, mean±se; for CD62P % positive platelets in blood: Example 3, at RT
# Description: (§2) Measurement of the expression CD62P and the number of leucocyte platelet aggregates (PLAs). Anti-coagulated blood (5 μl) was incubated at room temperature with either FITC CD62P (5 μl) or FITC isotype control (5 μl), or PE CD45 (5 μl) and FITC isotype control (5 μl) or FITC CD42a (5 μl) and PE CD45 (5 μl), in 90 μl of TS for 5 min. Samples were diluted to 1 ml with TS and analysed immediately by flow cytometry.
# (§3) Flow cytometry. Blood cells were analysed on a FACScan (Becton Dickinson, Oxford, UK) equipped with CellQuest® software. The flow cytometer was calibrated prior to use with fluorochrome labelled beads (Fluorospheres™, Dako).
# For the analysis of CD62P expression data was acquired in real time with a primary gate set on a dual parameter histogram of forward light scatter (FLS) logarithmic scale (abscissa) and side light scatter (SLS) logarithmic scale (ordinate). This facilitated identification of the platelets within the blood and was confirmed by the analysis of CD42a expression (FIG. 1). Background fluorescence was assessed with platelets labelled with the FITC conjugated isotype control antibody. Cursors were set in a single parameter histogram of frequency (ordinate) and green fluorescence intensity (abscissa), so that less than 1% of the platelets stained positively with the control antibody. Changes in CD62P expression (green fluorescence logarithmic scale), together with those of FLS and SLS, were then recorded on the gated platelets.
# [3] = tested on: platelet leucocyte aggregates in whole blood; experiment: Platelet-leucocyte aggregates (PLAs) by flow cytometry; format: cell-based, human
# Description: as §2, §3
# For the analysis of platelet-leucocyte aggregates (FIG. 2), cells were analysed in a histogram of side scatter (logarithmic scale ordinate) and orange fluorescence (logarithmic scale abscissa). Leucocytes identified by their positive staining with PE CD45 were gated to a histogram of green fluorescence (logarithmic scale ordinate) and orange fluorescence (logarithmic scale abscissa). Events that were both green and orange were considered platelet leucocyte aggregates and recorded as a percentage of a total of 10,000 gated leucocytes.
# As Example 1. Platelet-leucocyte aggregates could then be gated to a histogram (C) of side scatter (logarithmic scale ordinate) and orange fluorescence (logarithmic scale abscissa) to identify, by their characteristic SLS, which leucocytes were forming PLAs.
# whole blood = experiment: Comparison of ADVIA 120 haematology results in anticoagulated blood; format: cell-based, human; settings: Table 2, Mean (+/-S.E.) at 30 minutes, 7 control samples
# Description: as §1
# platelets [4] = settings: room temperature; on average; Threatte et al., 1984; cited from earlier work
# platelets [5] = settings: over a period of 1–2 h; impedance procedures; depends on sodium citrate concentration; cited from earlier work
# [6] = Example 1, 30 min, n=6, mean±se
# [7] = Example 1, 60 min, n=6, mean±se
# [8] = Example 1, 120 min, n=6, mean±se
# [9] = Example 1, 180 min, n=6, mean±se
compound,measurement,setting,value
"O=C(O)CN(CCN(CC(=O)O)CC(=O)O)CC(=O)O [EDTA, Ethylenediaminetetra-acetic acid]",Platelet count in blood,"platelets in whole blood [1]; Example 1, 0 min, n=6",235±12
same,MPC in blood,"platelets in whole blood [1]; Example 1, 0 min, n=6, mean±se",28.0 ± 0.87 g/dL
same,MPV in blood,"platelets in whole blood [1]; Example 1, 0 min, n=6, mean±se",8.0 ± 0.37 fL
same,PCDW in blood,"platelets in whole blood [1]; Example 1, 0 min, n=6, mean±se",5.85 ± 0.28 g/dL
same,Platelet count in blood,"platelets in whole blood [1]; Example 1, 30 min, n=6",246 ± 14
same,MPC in blood,platelets in whole blood [1]; [6],29.1 ± 0.52 g/dL
same,MPV in blood,platelets in whole blood [1]; [6],7.7 ± 0.27 fL
same,PCDW in blood,platelets in whole blood [1]; [6],5.00 ± 0.09 g/dL
same,Platelet count in blood,"platelets in whole blood [1]; Example 1, 60 min, n=6",249 ± 14
same,MPC in blood,platelets in whole blood [1]; [7],28.8 ± 0.42 g/dL
same,MPV in blood,platelets in whole blood [1]; [7],7.7 ± 0.24 fL
same,PCDW in blood,platelets in whole blood [1]; [7],5.00 ± 0.12 g/dL
same,Platelet count in blood,"platelets in whole blood [1]; Example 1, 120 min, n=6",247 ± 14
same,MPC in blood,platelets in whole blood [1]; [8],27.9 ± 0.48 g/dL
same,MPV in blood,platelets in whole blood [1]; [8],8.0 ± 0.30 fL
same,PCDW in blood,platelets in whole blood [1]; [8],4.80 ± 0.11 g/dL
same,Platelet count in blood,"platelets in whole blood [1]; Example 1, 180 min, n=6",246 ± 5
same,MPC in blood,platelets in whole blood [1]; [9],27.1 ± 0.36 g/dL
same,MPV in blood,platelets in whole blood [1]; [9],8.1 ± 0.21 fL
same,PCDW in blood,platelets in whole blood [1]; [9],4.80 ± 0.08 g/dL and 4.80 ± 0.06 g/dL
same,MPC in blood,"platelets in whole blood [1]; Example 3, at RT, 0 min",2.8e-12 ± 8.7e-14 g/dL
same,MPV in blood,"platelets in whole blood [1]; Example 3, at RT, 0 min",8.0 ± 0.37 fL
same,MPC in blood,"platelets in whole blood [1]; Example 3, at RT, 30 min",2.91e-12 ± 5.2e-14 g/dL
same,MPV in blood,"platelets in whole blood [1]; Example 3, at RT, 30 min",7.7 ± 0.27 fL
same,MPC in blood,"platelets in whole blood [1]; Example 3, at RT, 60 min",2.88e-12 ± 4.2e-14 g/dL
same,MPV in blood,"platelets in whole blood [1]; Example 3, at RT, 60 min",7.7 ± 0.24 fL
same,MPC in blood,"platelets in whole blood [1]; Example 3, at RT, 120 min",2.79e-12 ± 4.8e-14 g/dL
same,MPV in blood,"platelets in whole blood [1]; Example 3, at RT, 120 min",8.0 ± 0.30 fL
same,MPC in blood,"platelets in whole blood [1]; Example 3, at RT, 180 min",2.71e-12 ± 3.6e-14 g/dL
same,MPV in blood,"platelets in whole blood [1]; Example 3, at RT, 180 min",8.1 ± 0.21 fL
same,Platelet counts in blood,platelets in whole blood [1]; 0 min,235 ± 13
same,Platelet counts in blood,platelets in whole blood [1]; 30 min,246 ± 14
same,Platelet counts in blood,platelets in whole blood [1]; 180 min,246 ± 5
same,CD62P % expression in blood,platelets in whole blood [2]; 0 min post venesection,1.10 ± 0.24%
same,CD62P % expression in blood,platelets in whole blood [2]; 30 min,3.71 ± .04%
same,CD62P % expression in blood,platelets in whole blood [2]; 60 min,11.27 ± .60%
same,CD62P % expression in blood,platelets in whole blood [2]; 120 min,18.94 ± 2.53%
same,CD62P % expression in blood,platelets in whole blood [2]; 180 min,23.05±2.79%
same,CD62P % positive platelets in blood,platelets in whole blood [2]; 0 min,1.10 ± 0.24%
same,CD62P % positive platelets in blood,"platelets in whole blood [2]; 0 min, listed as K3EDTA",1.10±0.61%
same,CD62P % positive platelets in blood,platelets in whole blood [2]; 30 min,3.71 ± 1.04%
same,CD62P % positive platelets in blood,platelets in whole blood [2]; 60 min,11.27 ± 1.60%
same,CD62P % positive platelets in blood,platelets in whole blood [2]; 120 min,18.94 ± 2.53%
same,CD62P % positive platelets in blood,platelets in whole blood [2]; 180 min,23.05 ± 2.79%
same,CD62P % positive platelets in blood,"platelets in whole blood [2]; 180 min, listed as K3EDTA",23.05±1.54%
same,% platelet leucocyte aggregates in blood,"[3]; Example 1, 0 min, n=6, mean±se",3.50±0.50%
same,% platelet leucocyte aggregates in blood,[3]; [6],4.16 ± 0.86%
same,% platelet leucocyte aggregates in blood,[3]; [7],8.87 ± 1.54%
same,% platelet leucocyte aggregates in blood,[3]; [8],8.50 ± 1.44%
same,% platelet leucocyte aggregates in blood,[3]; [9],13.50±2.41%
same,% platelet leucocyte aggregates in blood,"[3]; Example 3, at RT, 0 min",3.30 ± 0.5%
same,% platelet leucocyte aggregates in blood,"[3]; Example 3, at RT, 0 min, listed as K3EDTA",3.50±0.71%
same,% platelet leucocyte aggregates in blood,"[3]; Example 3, at RT, 30 min",4.16 ± 0.86%
same,% platelet leucocyte aggregates in blood,"[3]; Example 3, at RT, 60 min",8.87 ± 1.54%
same,% platelet leucocyte aggregates in blood,"[3]; Example 3, at RT, 120 min",8.50 ± .44%
same,% platelet leucocyte aggregates in blood,"[3]; Example 3, at RT, 180 min",13.50 ± 1.74%
same,% platelet leucocyte aggregates in blood,"[3]; Example 3, at RT, 180 min, listed as K3EDTA",13.50±1.74%
same,MPC,whole blood,29.1 (0.52) g/dL
same,MPV,whole blood,7.7 (0.27) fL
same,PCDW,whole blood,5.00 (0.09) g/dL
same,PCT,whole blood,0.19 (0.01) %
same,PDW,whole blood,58.9 (3.24) %
same,PLT,"whole blood; CTAD ×1.11, E/C ×1.125",246 (14) 109/L
same,MPV greater than in corresponding citrate anticoagulated blood,platelets [4],23%
"O=C(O)CC(O)(CC(=O)O)C(=O)O [citrate, trisodium citrate]",increase in platelet volume,platelets [5],3–10%
